According to patent EP0719267B1, “SECOND MESSENGER CELL SIGNALING INHIBITORS” (CELL THERAPEUTICS, INC., priority 1993, dated 1994):

Tests used:
[1] = tested on: murine cytotoxic T-cell line, CT6; assay: Cytokine-induced proliferation of the cytotoxic T-cell line CT6 / CT-6.1; type: cell-based; conditions: added one hour prior to IL-2, thymidine at 48 hours
Procedure: Another assay in this example was used to determine inhibitive activity of the inventive compounds on direct IL-2-induced proliferation in a murine cytotoxic T-cell line, CT6. The CT6 cell line is an IL-2-dependent cell line. IL-2 was removed from the medium for 24 hours prior to stimulation. […] 49, 50, 45, 43 or 41 were added at various concentrations. The cells were stimulated with IL-2 and amount of tritiated thymidine dye incorporated was measured 48 hours later.
In another related assay, inhibitory effects on CT6 cell proliferation is examined. CT6 cells are a murine IL-2 dependent, cytotoxic T cell line that proliferate in response to murine IL-2 (15 U/ml).
CT-6.1 cells were starved overnight and stimulated with IL-2 (20 ng/ml). Twenty hours later, cells were labeled for 4 hours with ^3H-TdR and counted by liquid scintillation.
CT6.1 cells were cultured with IL-2 with or without the addition of inventive compound no. 45 (2 µM) and viable cells counted for up to 8 days. On day 4, two cultures previously incubated with compound no. 45, were washed and recultured with fresh IL-2 with or without compound no. 45 (2 µM).
Procedurally, CT-6.1 cells were starved overnight and stimulated with either IL-2 (20 ng/ml), IL-4 (50 ng/ml) or IL-7 (25 ng/ml). ^3H-TdR was added at 20 hours, cells were harvested 4 hours later, and the incorporation of ^3H-TdR was determined.

[2] = tested on: THP-1 cell adhesion to IL-1-activated HUVEC; assay: THP-1 cell adhesion to activated HUVEC; type: cell-based, human; conditions: IL-1 (10 ng/ml), 8 hours
Procedure: This example illustrates inhibitive activity of compounds nos. 50 and 57 on THP-1 cell adhesion to IL-1-activated HUVEC. In an investigative assay, HUVEC were stimulated with IL-1 (10 ng/ml), both in the absence and presence of varying concentrations of drugs for 8 hours in a 96-well microtiter plate. In the wellplate, human monocytic leukemia cell line THP-1 cells were added at 50,000 cells per well. The THP-1 cells were pre-incubated with BCECF, a fluorescence dye that can be used to measure cell number using a fluorescence plate reader. After 10 minutes at 37 °C, the microtiter plate was inverted and spun at 900 rpm. The remaining adhering THP-1 cells were then analyzed.
Inventive compound no. […] HUVEC were stimulated with 20 ng/ml IL-1β or 15 ng/ml TNFα for 6 hours. Fluorescence labeled (BCECF-AM) THP-1 cells were allowed to adhere to the HUVEC for 20 minutes, washed once and the amount of fluorescence remaining analyzed on a fluorescence plate reader. The results, reported in figures 62A and 62B (TNFα or IL-1β, respectively), show inhibition of THP-1 adhesion to HUVEC.
Figures 72A and 72B illustrate that inventive compound no. 58 inhibited THP-1 cell adhesion to either TNF or IL-1-stimulated HUVEC, respectively. Procedurally, HUVEC were stimulated with TNF or IL-1 for 8 hours and THP-1 cells added for 20 minutes. The HUVEC were then washed and analyzed for adherence. Inventive compound no. 58 inhibited adhesion of THP-1 cells to HUVEC with an IC50 of approximately 1 µM for both TNF and IL-1.

Balb/3T3 cells = assay: PDGF-induced proliferation of Balb/3T3 cells; type: cell-based, murine
Procedure: Balb/3T3 cells respond vigorously to PDGF stimulation, and are useful in vitro models for further study of PDGF-induced proliferation. Disregulated PDGF-proliferative response has been linked to a variety of diseases, including, e.g., restenosis, atherosclerosis, fibrosis, and tumor cell angiogenesis. Cells were plated in low serum-containing medium for 24 hours prior to stimulation with various concentrations of inventive compound no. 45. PDGF-BB was added at constant 10 µM concentrations. Tritiated thymidine was added and cells harvested for scintillation counting 24 hours later. Figure 15 illustrates a dose response curve from this assay, including an IC50 value of approximately 0.08 µM, exemplifying inhibitory activity of the tested compound.
In another investigation similar to the Balb/3T3 proliferation assay of Example 32, IC50 and ID50 values for inventive compounds nos. 70, 45, 59 and 58 were determined. LD50 values were determined using a cytotoxicity assay, as in Example 32. In these assays, Balb/3T3 cells, stimulated with PDGF and treated with one of the above inventive compounds in a manner identical to the tritiated thymidine procedure above, were incubated instead with a viable dye BCECF, a fluorescent dye. Fluorescence was measured using a fluorescent plate reader. […] Figure 17 illustrates assay results by comparing […] value against LD50 values for the inventive compounds tested. Most compounds tested were non-cytotoxic yet were significant inhibitors of proliferation.
Inventive compounds nos. 77,7 and 78 were added at various concentrations one hour prior to PDGF stimulation. PDGF-BB was added at a constant 10 µM concentrations along with tritiated thymidine. The cells were allowed to incubate for one day, following addition of PDGF and tritiated thymidine. 24 Hours later, the cells were harvested and counted by liquid scintillation counting. Results for compounds nos.77, 7 and 78 are shown in figures 26A, 26B and 26C, respectively. Background counts were approximately 1% of control levels.
Results obtained for compound no. 50 in the PDGF-induced proliferation of Balb/3T3 cells (Example 32), reported in figure 28, illustrate the inhibitive properties of this compound on proliferation induced by PDGF, representing significant inhibition at concentrations as low as 2 µM. […] 50, are capable of reducing tumor cell growth by blocking oncogene-induced events.
Figure 66 reports that inventive compound no. 45 inhibited PDGF-induced murine BALB/3T3 proliferation. Procedurally, cells were rested overnight in 0.2% serum and stimulated with 25 ng/ml PDGF. Compound no. 45 was added 1 hour prior to stimulation. Cells were pulsed with ^3H-TdR 24 hours later and harvested for scintillation counting 4 hours later.
Figures 66A and 66B are a dose response and cytoxicity curves, respectively, for inhibition of proliferation in Balb/3T3 cells by inventive compound no. 58. In the assay protocol, cells were starved overnight in 0.5% serum containing medium, followed by stimulation with 20 ng/ml PDGF for 24 hours. The cells were labeled with ^3H-TdR for 4 hours and harvested and counted by scintillation. Figure 66B illustrates that inventive compound no.
Figure 68 illustrates an effect of the delayed addition of inventive compound no. 58 to Balb/3T3 proliferation in response to PDGF-BB. Cells were stimulated with PDGF (20 ng/ml) and inventive compound no. 58 added either simultaneous with PDGF (0) or at various times after addition of PDGF, up to 6 hours later. At 24 hours, the cells were pulsed with ^3H-TdR and counted by scintillation four hours later. […] 58 was added as late as 20 hours after PDGF.
Figure 69 illustrates that inventive compound no. […] In the assay protocol, cells were serum starved for 24 hours before adding either 20 ng/ml PDGF or 10% serum. The cells were pulsed with ^3HTdR 24 hours later. Inventive compound no.

[3] = tested on: murine thymocyte proliferation; assay: Thymocyte proliferation co-stimulated by ConA and IL-2 (tritiated thymidine); type: cell-based, Balb/C mice; conditions: Mus musculus, Thymocyte, 96 h; ConA and IL-2 (15 U/ml), 4 days
Procedure: (§1) ConA, used to activate CD3, induces T-cell proliferation and differentiation. Thymuses, obtained from normal, female Balb/C mice, were dissociated and plated into 96-well plates at a density of 2 x 10^5 cells/well. ConA (0.25 mg/ml) and IL-2 (15 U/ml) were added to the wells. The cells were incubated for 4 days at 37°C. On day 4, the cells were pulsed with tritiated thymidine and incubated for an additional 4 hours. The amount of tritiated thymidine dye incorporated by the harvested cells was determined in a liquid scintillation counter. Drug doses (shown in figs. 1A and 1B) were added two hours prior to ConA and IL-2 activation.
as §1, with “Thymuses,” for “ConA, used to activate CD3, induces T-cell proliferation and differentiation. Thymuses,”, “37 °C.” for “37°C.”, “Doses” for “Drug doses”, “26A, 26B” for “1A”, “26C)” for “1B)”
In another in vitro protocol, thymocyte proliferation was induced by sub-mitogenic doses of Con A (0.25 µg/ml) and IL-2 (20 ng/ml). Cells were stimulated for 96 hours, prior to addition of ^3H-TdR for 4 hours. The cells were harvested and incorporation of ^3H-TdR was determined.
45 on co-stimulated thymocyte proliferation. In an assay procedure, murine thymocytes were stimulated with ConA and IL-2 with 1 µM compound no. 45 added either 1 hour prior to IL-2 (-1), simultaneous with IL-2 (0) or at various times following IL-2 addition (1-92 hour). At 92 hours the thymocytes were pulsed with ^3H-TdR, harvested and counted by scintillation 4 hours later.

CMV promoter activity = assay: microbe, parasite or virus in culture; type: cell-based; conditions: transformed (adenovirus) cells
Text: This example illustrates data of proliferative activity of various inventive compounds for inducing CMV promoter activity. The CMV promoter assay measures gene transcription and translation activity wherein any active compounds will have cytotoxic activity for inhibiting cellular protein synthesis in transformed (adenovirus) cells. Compound no. […]

[4] = tested on: proliferative PMBC response to allogeneic stimulation; assay: Two-way mixed lymphocyte reaction; type: cell-based; conditions: Lymphocyte; figs. 2A-2C
Text: This example illustrates therapeutic potential for various autoimmune and inflammatory diseases of the inventive compounds by comparing potency (inhibitive activity) with cytotoxicity data obtained using the following indicative assay procedures. In a mixed lymphocyte reaction assay of compounds nos. […] Compounds nos. […] 2A and 2B. Both compounds nos. […] 2C.
Compound no. […] Compound no.

mast cell degranulation = assay: Serotonin release assay for inhibition of mast cell degranulation; type: cell-based; conditions: Concentration 50 µM
Text: This assay provides an in vitro model for an allergy and asthma therapeutic product. […]

Human stromal cells = assay: Stromal cell proliferation in response to PDGF-BB; type: cell-based; conditions: 50 ng/ml PDGF-BB
Procedure: This assay is useful for predicting therapeutic activity for preventing or treating restenosis, atherosclerosis and coronary artery disease. Human stromal cells were starved in serum-free media for one day and then stimulated with 50 ng/ml PDGF-BB. Inventive compounds, at various concentrations, were added one hour prior to PDGF stimulation. PDGF and tritiated thymidine were added and the cells allowed to incubate for one day, following addition of the PDGF and thymidine. 24 Hours later, the cells were harvested and counted by liquid scintillation counting. Results for compounds nos. Background counts (i.e., starved cells) were approximately 1% of control levels. […] 30, 28, 29, 32 and 31, respectively.

CCCCCCCCCCNCC(O)CCCCCCCn1c(=O)c2c(ncn2C)n(C)c1=O (stereo not drawn) [compound 41, 1-(9-Decylamino-8-hydroxynonyl)-3,7-dimethylxanthine]
inhibition of direct IL-2-induced proliferation [1]: inhibited direct IL-2-induced CT6 proliferation

CCCCCCCCCCCCCCNCC(O)CCCCCCCn1c(=O)c2c(ncn2C)n(C)c1=O (stereo not drawn) [compound 43, 1-(9-Tetradecylamino-8-hydroxynonyl)-3,7-dimethylxanthine]
inhibition of direct IL-2-induced proliferation [1]: inhibited direct IL-2-induced CT6 proliferation

Cn1cnc2c1c(=O)n(CCCCCCCCCC(O)CNCc1ccc(N)cc1)c(=O)n2C (stereo not drawn) [compound 57, 1-[11-(4-Aminobenzylamino)-10-hydroxyundecyl]-3,7-dimethylxanthine]
inhibition of THP-1 adhesion [2]: significantly inhibited THP-1 adhesion, even at low concentratations

CCCCCCCCNCC(O)CCCCCCCCC(=O)O (stereo not drawn) [compound 78, 11-Octylamino-10-hydroxyundecanoic acid]
inhibition of PDGF-induced proliferation (Balb/3T3 cells): inhibit Balb/3T3 proliferation
IC50 [3]: 12.4 µM

CCCCCCCCNCC(O)CCCCCCCCC(=O)NC (stereo not drawn) [compound 79, 11-Octylamino-10-hydroxyundecanoic acid N-methyl amide]
IC50 [3]: 10.6 µM

CCCCCCCCNCC(O)CCCCCCCCC(=O)N(C)C (stereo not drawn) [compound 80, 11-Octylamino-10-hydroxyundecanoic acid N,N-dimethyl amide]
IC50 [3]: 3.8 µM

CCCNCC(O)CCCCNC(=O)CCCC(=O)NCCC (stereo not drawn) [compound no. 5, N^2-(5-hydroxy-6-(N^3-propyl)aminohexyl)-(N^1-propyl)glutaric acid]
IC50 (CMV promoter activity): > 500 µM
IC50 [4]: > 250 µM

CCCCCCCCNCC(O)CCCCCCCCCO (stereo not drawn) [compound no. 7, 1-Octylamino-2,11-undecadiol]
inhibition of PDGF-induced proliferation (Balb/3T3 cells): inhibit Balb/3T3 proliferation

CCCNCC(O)CCCCn1c(=O)ccn(C)c1=O (stereo not drawn) [compound no. 19, 3-(5-hydroxy-6-(N-propyl)aminohexyl)-1-methyluracil]
IC50 (CMV promoter activity): > 500 µM
% Inhibition (mast cell degranulation): inactive

CCCNCC(O)CCCCn1c(=O)c(C)cn(C)c1=O (stereo not drawn) [compound no. 26, 3-(6-Propylamino-5-hydroxyhexyl)-1-methylthymine]
IC50 (CMV promoter activity): > 500 µM
IC50 [4]: > 250 µM

Cn1cnc2c1c(=O)n(CCCCC(O)CNCCCCc1ccccc1)c(=O)n2C (stereo not drawn) [compound no. 29, 1-(5-hydroxy-6-(N-(4-phenyl)butyl)aminohexyl)-3,7-dimethylxanthine]
IC50 (Human stromal cells): 40 µM
IC50 (CMV promoter activity): > 100 µM

Cn1cnc2c1c(=O)n(CCCCC(O)CNCC1CCCCC1)c(=O)n2C (stereo not drawn) [compound no. 31, 1-(5-hydroxy-6-(N-cyclohexylmethyl)aminohexyl)-3,7-dimethylxanthine]
IC50 (Human stromal cells): > 50 µM
IC50 (CMV promoter activity): > 100 µM

Cn1cnc2c1c(=O)n(CCCCC(O)CNCCCCCCO)c(=O)n2C (stereo not drawn) [compound no. 32, 1-(5-hydroxy-6-(N-(6-hydroxy)hexyl)aminohexyl)-3,7-dimethylxanthine]
IC50 (Human stromal cells): > 50 µM
IC50 (CMV promoter activity): > 100 µM

CCCCCCCCNCC(O)CCCCCCCCCN(C)C(C)=O (stereo not drawn) [compound no. 77]
inhibition of PDGF-induced proliferation (Balb/3T3 cells): inhibit Balb/3T3 proliferation
